Earlier results, collected in US9795640B2, “Controlling appetite, promoting weight loss, reducing body fat, and/or improving glucose tolerance” (VANDERBILT UNIVERSITY, priority 2011, dated 2017).

Conditions: intraperitoneal administration; for obesity: animals fed a high-fat diet

SMILES	food intake	obesity
CCCCCCCCCCCCCCCCCC(=O)NCCO [SEA, N-stearoyl-ethanolamide]	markedly reduces	markedly reduces
CCCCCCCC/C=C\CCCCCCCC(=O)NCCO [OEA, N-oleoyl-ethanolamide]	markedly reduces	markedly reduces
